From patent US20060019971A1, “Treatment of cardiovascular disease with inhibitors of p38 kinase” (priority 2003, published 2006)
“Also recorded” adds a separate entry of the source.

Legend:
COX-2 mRNA in HPBMCs = experiment: COX-2 gene expression in HPBMCs, real-time PCR; type: cell-based, human; conditions: 6 hours
Method: 5×10^6 HPBMCs were plated in 6-well. After 1 hour medium was removed and cells were treated with vehicle or 1 μM p38 inhibitor in RPMI 1640 medium. After 1 hour cells were stimulated with 10% FCS only or 10 μg/ml CRP plus 10% FCS. After 6 hours RNA was extracted from the cells and COX-2 gene expression level was determined by real-time PCR as described in the Experimental section.
Cryopreserved human peripheral blood monocytes (HPBMCs, from Biowitker, Walkersvill, Md.) were thawed and washed twice in RPMI 1640. Cells were plated in tissue culture plates and incubated in 5% CO2 at 37 C. After 1 hr media were removed and cells were treated with various treatments. After 2 to 20 hours conditioned media and/or cell lysates were collected for the analyses of secreted cytokines, protein or mRNA expression. […]
RNA was extracted from the cells using Qiagen RNA extraction kit according to the manufacturer's instruction. The expression of pro-inflammatory genes IL-1β, IL-6, IL-8, TNFα, COX-2, ET-1, TF were assessed by real-time PCR. […]
Real-time RT-PCR was performed in a two-step manner. cDNA synthesis and real-time detection were carried out in a PTC-100™ Thermal Cycler (MJ Research Inc, Waltham, Mass.) and an ABI Prism™ 7700 Sequence Detection System (Applied Biosystems, Foster City, Calif.), respectively. […] Relative quantitation of gene expression was performed using the relative standard curve method. […]

[1] = system: IL-6 secretion from HPBMCs; experiment: IL-6 secretion from HPBMCs, ELISA; type: cell-based, human
Method: FIG. 2(a) illustrates both the effect of CRP on IL-6 secretion from HPBMCs and its modulation by a p38 inhibitor. 8×10^5 HPBMCs were plated in 96-well. After 1 hour medium was removed and cells were incubated with or without 10 μg/ml of purified human CRP in serum-free RPMI 1640. In parallel experiments cells were treated with 10% FCS together with the CRP treatment. For the p38 antagonism, the p38 inhibitor was added to a final concentration of 1 μM in the parallel treatment. After 6 hours the conditioned medium was collected and IL-6 and IL-8 levels were determined by ELISA. FIG. 2(b) illustrates the effects of p38 inhibitor concentration on CRP induced IL-6 secretion from HPBMCs. 3×10^5 HPBMCs were plated in 96-well. After 1 hour medium was removed and cells were incubated with 10 μg/ml of purified human CRP plus 10% FCS in the presence of varying concentrations of p38 inhibitor. After 4 hours conditioned medium were collected and IL-6 level was determined by ELISA. FIG. 2(c) illustrates both the effect of CRP on IL-6 gene expressions in HPBMCs and its modulation by p38 inhibitor. 5×10^6 HPBMCs were plated in 6-well. After 1 hour medium was removed and cells were treated with vehicle or 1 μM p38 inhibitor in RPMI 1640 medium. After 1 hour cells were stimulated with 10% FCS only or 10 μg/ml CRP plus 10% FCS. After 6 hours RNA was extracted from the cells and IL-6 expression level was determined by real-time PCR as described in Experimental section.
Cryopreserved human peripheral blood monocytes (HPBMCs, from Biowitker, Walkersvill, Md.) were thawed and washed twice in RPMI 1640. Cells were plated in tissue culture plates and incubated in 5% CO2 at 37 C. After 1 hr media were removed and cells were treated with various treatments. After 2 to 20 hours conditioned media and/or cell lysates were collected for the analyses of secreted cytokines, protein or mRNA expression. 10 μg/ml of purified human CRP (Calbiochem, San Diego, Calif.) was used in most of the treatments. In some experiments fetal calf serum (FCS from ATCC) was added to a final concentration of 10% together with CRP. In the examples provided herein, including those assessing the effects of p38 antagonism, cells were pre-treated with SD, a p38 small molecule inhibitor (Compound 162 in Table A) for 1 hour prior to CRP treatment as described above. In a parallel series of experiments, the effect of vehicle (DMSO) was tested. For TaqMan analyses of various gene expression cells were lysed in ice-cold RLT lysis buffer (Qiagen, Valencia, Calif.) and the lysates were kept in −80° C. until the analyses. For Western analyses cells were lysed in RIPA buffer (50 mM Tris-HCl, pH 7.5, 150 mM NaCl, 1 mM EDTA, 1% NP-40) containing phosphatase inhibitor cocktails and protease inhibitor cocktail (Promega, Madison, Wis.).
Conditioned media from the treated cells were collected (6 to 20 hrs), and the level of secreted interleukin 6 (IL-6), interleukin 1 beta (IL-1 β), tumor necrosis factor alpha (TNFα), and interleukin 8 (IL-8) was determined by ELISA according to the manufacturer's instruction (Biosource International, Camarillo, Calif.). All determinations were performed in duplicates.
As part of the studies described herein, an investigation was done as to whether the CRP invoked IL-6 secretion from HPBMCs is dependent on p38 MAP kinase signaling. […] The effect of addition of 10% fetal calf serum (FCS) during the CRP treatment on IL-6 secretion was also assessed. […]

C[C@@H]1CN(Cc2ccc(F)cc2)[C@@H](C)CN1C(=O)c1cc2c(C(=O)C(=O)N(C)C)c[nH]c2cc1Cl [Compound 162]
inhibition of CRP-invoked COX-2 mRNA expression (COX-2 mRNA in HPBMCs; 1 μM SD pre-treatment, listed as SD): almost completely blocked; also recorded: almost completely inhibited
inhibition of FCS induced COX-2 mRNA (COX-2 mRNA in HPBMCs; 1 μM SD): completely inhibited
inhibition of CRP-induced IL-6 secretion ([1]; 1 μM SD, 10 μg/ml CRP, no FCS, 6 hours): almost completely attenuated
inhibition of IL-6 secretion induced by CRP plus 10% FCS ([1]; 1 μM SD, 6 hours): dramatically inhibited
inhibition of basal IL-6 secretion ([1]; 1 μM SD, HPBMCs, 6 hours): almost completely attenuated
inhibition of IL-6 secretion invoked by CRP in the presence of FCS ([1]; 3 μM SD, 4 hours): almost completely inhibited
IC50 ([1]; Homo sapiens, CRP 10 μg/ml in the presence of 10% FCS, 4 hours, read-out: concentration effective to inhibit 50% of IL-6 secretion): < 0.05 µM
